What was measured:
Conditions in all cases: synthetic library passage 3, intravenous, relative to wild-type AAV9
[1] = tested on: brain, spinal cord, and DRG of the NHPs; experiment: NGS fold enrichment of synthetic library (passage 3) in NHPs, first cross-species screen; type: in vivo, cynomolgus macaques (Macaca fascicularis)
Outline: (§1)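 Synthetic capsid library (passage 3) was given intravenously […] to NHPs aged 2-4 years and to BALB/c and C57Bl/6 mice (n=3 each, 6-8 weeks). After about 28 days in vivo, tissue RNA was RT-PCR amplified and NGS-sequenced; values are fold enrichment per variant relative to wild-type AAV9.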

brain [2] = experiment: NGS fold enrichment of synthetic library (passage 3) in C57Bl/6 mice, first cross-species screen; type: in vivo
Outline: as §1

brain [3] = experiment: NGS fold enrichment of synthetic library (passage 3) in BALB/c mice, first cross-species screen; type: in vivo
Outline: as §1

[4] = RNA from spinal cord of NHPs, NGS
[5] = RNA from brain of C57Bl/6 mice, NGS
[6] = RNA from brain of BALB/c mice, NGS

Sequence	Fold enrichment over AAV9 in the brain of NHPs ([1]; RNA NGS, brain of NHPs)	Fold enrichment over AAV9 in the spinal cord of NHPs ([1]; RNA NGS, spinal cord of NHPs)	Fold enrichment over AAV9 in the brain of Mice (C57Bl/6) (brain [2]; RNA NGS, brain of C57Bl/6 mice)	Fold enrichment over AAV9 in the brain of Mice (BALB/c) (brain [3]; RNA NGS, brain of BALB/c mice)	Fold enrichment over AAV9 in the brain of NHPs ([1]; RNA from brain of NHPs, NGS)	Fold enrichment over AAV9 in the spinal cord of NHPs [1, 4]	Fold enrichment over AAV9 in the brain of Mice (C57Bl/6) (brain [2]; [5])	Fold enrichment over AAV9 in the brain of Mice (BALB/c) (brain [3]; [6])
GSGLPVLSGQNQQT	3.100 fold	4.149 fold	0.631 fold	0.210 fold	–	–	–	–
GSGLRQTSQQNQQT	1.537 fold	2.067 fold	0.978 fold	0.705 fold	–	–	–	–
GSGLRTMTTQNQQT	1.900 fold	8.939 fold	0.838 fold	0.594 fold	–	–	–	–
GSGLSGITMQNQQT	1.792 fold	14.796 fold	0.862 fold	0.496 fold	–	–	–	–
GSGLSHATQQNQQT	2.640 fold	7.819 fold	1.111 fold	0.638 fold	–	–	–	–
GSGLSHSHQQNQQT	2.109 fold	5.852 fold	1.256 fold	0.592 fold	–	–	–	–
GSGLSVHLAQNQQT	2.657 fold	1.234 fold	0.806 fold	0.508 fold	–	–	–	–
GSGLSVQSGQNQQT	2.637 fold	2.929 fold	1.695 fold	1.005 fold	–	–	–	–
GSGLTLSATQNQQT	1.901 fold	0.193 fold	0.708 fold	0.340 fold	–	–	–	–
GSGMIHTTAQNQQT	–	–	–	–	1.285 fold	0.105 fold	0.678 fold	0.276 fold
GSGMIIASMQNQQT	1.469 fold	6.722 fold	1.135 fold	0.415 fold	–	–	–	–
GSGMLTHTLQNQQT	2.246 fold	2.272 fold	0.496 fold	0.199 fold	–	–	–	–
GSGMPASRLQNQQT	1.117 fold	1.689 fold	0.790 fold	0.372 fold	–	–	–	–
GSGMPIRNVQNQQT	1.584 fold	0.138 fold	0.684 fold	0.631 fold	–	–	–	–
GSGMPQSHIQNQQT	3.289 fold	11.609 fold	0.514 fold	0.334 fold	–	–	–	–
GSGMPVILGQNQQT	2.005 fold	0.150 fold	0.840 fold	0.287 fold	–	–	–	–
GSGMRQAGVQNQQT	1.032 fold	0.811 fold	0.736 fold	0.775 fold	–	–	–	–
GSGMSPSTLQNQQT	2.216 fold	3.053 fold	0.318 fold	0.153 fold	–	–	–	–
GSGNMHASRQNQQT	–	–	–	–	1.238 fold	3.878 fold	0.782 fold	0.687 fold
GSGNPHVRNQNQQT	1.112 fold	0.873 fold	0.732 fold	0.755 fold	–	–	–	–

From US20260250318A1, “COMPOSITIONS AND METHODS FOR CROSSING THE BLOOD BRAIN BARRIER” (VOYAGER THERAPEUTICS, INC., priority 2022, published 2026)
